Laboratory results: PMC2443152, “Molecular evolution of B6 enzymes: Binding of pyridoxal-5'-phosphate and Lys41Arg substitution turn ribonuclease A into a model B6 protoenzyme” (BMC Biochemistry, 2008)
Residue numbers refer to the chain shown, from its start. Like-named read-outs stand apart in the source and are kept apart here.

How the values were obtained:
[1] = target: T1, bovine pancreatic ribonuclease A (RNase) (Bos taurus, UniProt P61823); assay: intrinsic (tyrosine) fluorescence quenching titration, nonlinear regression; format: binding; conditions: read-out: Wild-type
T1 construct: gene RNASE1; mature RNase A; recombinant from pET22b(+) NdeI/HindIII in E. coli BL21 (wild type also from bovine pancreas, Sigma type II); no tag mentioned
T1 sequence (P61823 27-150): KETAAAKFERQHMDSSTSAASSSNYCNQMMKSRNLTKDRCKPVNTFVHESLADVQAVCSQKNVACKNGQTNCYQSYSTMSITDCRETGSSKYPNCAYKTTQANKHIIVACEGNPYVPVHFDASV
From the text: (§1) intrinsic (tyrosine) fluorescence quenching titration, nonlinear regression on bovine pancreatic ribonuclease A (RNase)

[2] = target: T2, bovine pancreatic ribonuclease A (RNase) (Bos taurus, UniProt P61823, K67R); assay: as above; format: binding
T2 construct: gene RNASE1; mature RNase A; recombinant from pET22b(+) NdeI/HindIII in E. coli BL21 (wild type also from bovine pancreas, Sigma type II); no tag mentioned
T2 sequence (P61823 27-150 K67R): T1 sequence (P61823 27-150) with K41R
From the text: as §1

Row | SMILES | Kd [1] | Kd ([2]; read-out: K41R) | Kd ([2]; read-out: Wild-type)
1 | Cc1ncc(COP(=O)(O)O)c(C=O)c1O [PLP] | 120 ± 5 µM | 140 ± 10 µM | –
2 | Cc1ncc(COP(=O)(O)O)c(CN)c1O [PMP] | 106 ± 5 µM | 107 ± 3 µM | –
3 | Cc1ncc(COP(=O)(O)O)c(CN[C@H](C)C(=O)O)c1O [PPL-D-alanine] | 45 ± 1 µM | 40 ± 3 µM | –
4 | Cc1ncc(COP(=O)(O)O)c(CN[C@@H](C)C(=O)O)c1O [PPL-L-alanine] | 23 ± 1 µM | – | 23 ± 1 µM
